From patent US6517864B1 (Pharmacia AB, priority 1998, dated 2003)

Assays:
[1] = pharmacokinetics of oral tolterodine (background data); settings: extensive metabolisers, EMs
[2] = In vitro permeation across synthetic membranes and dermatomed pig skin from solutions of tolterodine base (Franz diffusion cells, Example 2); type: in vitro ADME
Description: In vitro skin permeation results were obtained from studies on pig or human skin using Franz diffusion cells.
Full thickness pig and human skin (used in Example 1) or 765 μm skin (used in all other Examples) was used. The 765 μm skin was isolated by using a dermatome (Zimmer Electric Dermatome 8821, Zimmer Chirurgie).
The skin was mounted in the diffusion cells with an available diffusion area of 1.8 cm^2. The inner side of the skin was exposed to 12.1 ml receptor phase (0.05M phosphate buffer, pH 7.4) at 37±1° C. Samples were withdrawn periodically and measured by HPLC. Fluxes (>g/cm^2/h) were obtained by linear regression of data at steady state.
In vitro permeation studies across synthetic membranes and dermatomed pig skin from solutions of tolterodine base, imitating the reservoir type transdermal device. Enhancer was added to one of the solutions.
Membranes of the following types were used: CoTran 9702 (microporous polyethylene film) with 9% vinyl acetate (VA) and CoTran 9728 with 19% vinyl acetate. The solutions 3 and 4 were both applied on the surface of the two mentioned membranes while solution 5 only was applied on the surface of the CoTran 9702 membrane with 9% vinyl acetate. The membranes were placed on top of dermatomed pigskin. The inner sides of the pigskin were exposed to 12.1 ml receptor solution (0.05M phosphate pH 7.4 equilibrated to 37±1° C.).

[3] = partition coefficient between n-octanol and phosphate buffer; settings: n-octanol / phosphate buffer at pH 7.32
[4] = poor metabolizer; cited from earlier work
[5] = solubility in water; settings: room temperature
[6] = test system: guinea pigs; experiment: Delayed contact hypersensitivity, Guinea Pig Maximization Test; type: in vivo; settings: 1% intradermal induction, 25% topical induction and challenge, in sesame oil
Excerpt: The delayed contact hypersensitivity test used was the Guinea Pig Maximization Test described by B. Magnusson and A. M. Kligman.
A 1% (w/w) test article concentration in sesame oil was used for the intradermal induction. A 25% (w/w) test article concentration in sesame oil was used for the topical induction and for the challenge application.

Substance	half-life [1]	flux ([2]; 1 or 3% HPC/ethanol solution, 9% VA CoTran membrane on dermatomed pigskin)	flux ([2]; 1 or 3% HPC/ethanol solution, 19% VA CoTran membrane on dermatomed pigskin)	flux ([2]; enhancer (methyl laurate:ethanol 1:9), 9% VA CoTran membrane on dermatomed pigskin) [μg/cm^2/h]	partition coefficient (Log P) [3]	systemic clearance (CL) [4]	solubility in water [5]	delayed contact hypersensitivity reaction [6]
N,N-dilso-propyl-3′-(2-hydroxy-5-methylphenyl)-3-phenylpropanamine [Tolterodine]	about 2 hours	about 4 μg/cm^2/h	about 11 μg/cm^2/h	9	1.83	about 10 L/h	about 11 mg/ml	–
tolterodine L-tartrate	–	–	–	–	–	–	–	did not provoke a delayed contact hypersensitivity reaction
